Where a name gives a salt, the structure may show the parent alone. Read-outs that look alike come from different tables or passages of the source.
Assays:
[1] = system: ischemia-induced neurological symptoms in the Mongolian Gerbil; test: Improvement of ischemia-induced neurological symptoms in the Mongolian gerbil caused by ligation of the bilateral common carotid arteries for 30 minutes; format: in vivo; conditions: 100 mg/kg i.p. upon recommencement of blood flow
Method: The test animals employed were male adult Mongolian gerbils (16-20 weeks old). These were used in groups each consisting of from 10 to 20 animals. The bilateral common carotid arteries were occluded for 30 minutes under anesthesia with pentobarbital (30 mg/kg, intraperitoneally) and halothane (it was introduced to a mixture of 95% oxygen and 5% carbon dioxide at a concentration of 1.5% by volume) and then the occlusion was released to allow the blood to flow. The animal was then placed in a supine position, and we measured (1) the time taken from recommencement of blood flow until convulsions occurred and (2) the survival time. Observations to determine the onset time of convulsions and the survival time were continued for 6 and 7 hours, respectively, after recommencement of blood flow. […] The compound to be tested was suspended in a 0.5% w/v carboxymethyl cellulose (CMC) aqueous solution and administered intraperitoneally upon recommencement of blood flow in the common carotid arteries. On the other hand, a 0.5% CMC solution containing no test compound was administered likewise to a control group. Statistical analysis was carried out using the Mann-Whitney U-test between the control group and the test group.

[2] = system: ischemia-induced neurological symptoms in SHR SP; test: Improvement in ischemia-induced neurological symptoms in Spontaneously Hypertensive Rats Stroke Prone (SHR SP) caused by ligation of the bilateral common carotid arteries; format: in vivo, rat (SHR SP)
Method: The test animals employed were male adult SHR SPs (13 or 15 weeks old). They were used in groups each consisting of about 10 animals. Under halothane anesthesia, both common carotid arteries of each animal were ligated to prepare a brain ischemia model. The halothane anesthesia was stopped immediately after the ligation, and then the time taken to recover the righting reflex, the onset time of convulsions and the survival time were determined. The test solution was prepared in the same manner as described in Experiment 1 and was administered to the animal intraperitoneally 30 minutes before the ligation. A 0.5% CMC solution was administered to the control group in the same manner. The statistical analysis was carried out in a similar manner to that in Experiment 1. The statistical analysis of the survival rate was carried out by the X^2 test.

[3] = system: decerebrate rigidity in rats; test: Suppression of decerebrate rigidity in rats; format: in vivo, rat
Excerpt: The suppression of decerebrate rigidity in laboratory animals, such as rats, is a well known model for control of human spasticity and/or rigidity.
In the test method, a rat was anesthetized with halothane and fixed on a stereotaxic apparatus (SR-5, Narishige). In accordance with the brain atlas by Pellegrino et al., [L. J. Pellegrino, A. S. Pellegrino & A. J. Cushman: A Stereotaxic Atlas of the Rat Brain, Plenum Press, New York and London (1967)], an electrode 0.7 mm in diameter, which was insulated except for 1 mm at the tip, was inserted bilaterally into the midbrain reticular formation (AP: 0, L: ±1.5, H: -3.0). A clip serving as the reference electrode was fixed on the temporal muscle. Through these electrodes, a high frequency electric current (100 KHz, 10 to 20 mA) was applied from a lesion generator (Glass Co., LM4A) for 2 to 3 minutes to cauterize electrically this brain region.
The rat was then immediately set free from the stereotaxic apparatus. A polyethylene cannula was inserted into the duodenum and fixed with an acrylic resin (Aron Alfa, Sankyo Co., Ltd.). After completion of these operations, halothane anesthesia was immediately discontinued.
After 1.5 hours, when the animal awoke from the anesthesia, the rat was fixed on an apparatus devised in our laboratory for a hind leg fixation. Both hind legs were fixed at the anterior part of the ankle joints. Both hindlimb paws were then pushed in 4 mm for 6 seconds in every minute. The resulting repulsive tension was drawn on a polygraph through a strain gauge.
The test compounds were suspended in a 0.5% w/v CMC (carboxymethyl cellulose) aqueous solution and were administered orally (p.o.) or intraperitoneally (i.p.).
The results are summarized in the following Table 7, where the compounds of the present invention are identified by the number of the foregoing Example in which each was prepared, Compound X is the known compound eperisone hydrochloride, and Compound Y is the known compound afloqualone.

[4] = system: spinal reflex in cats; test: Effect on spinal reflex in cats; format: in vivo, cat
Method: Adult cats weighing 3.0 to 4.5 kg each were used. After induction of anesthesia with ether, the animal was anesthetized by intravenous injection of 50 mg/kg of a-chloralose. After the trachea was cannulated, the animal was fixed on a stereotaxic apparatus, and the lumbosacral spinal cord was exposed by laminectomy from L3 to S1. The ventral roots of the right side were cut from L6 to S1 as distal as possible and the cut ends were ligated with cotton thread previously immersed in Ringer's solution. The exposed spinal cord was covered with warmed mineral oil and maintained at 37° C. The ventral root, either L7 or S1, was fixed on a pair of platinum wire electrodes. A pair of collar-type electrodes was implanted on the ipsilateral tibial nerve and the saphenous nerve, for stimulation. After completion of all these operations, the cat was immobilized with pancronium bromide (0.5 mg/kg, i.v.) and maintained by artificial respiration (40/minute). Recording was started at least 2 hours after withdrawal of ether anesthesia. A single square pulse (0.01 to 0.1 msecond pulse width, supramaximal intensity) was applied to the nerve at a frequency of 0.3 Hz from an electronic stimulator. […] In a similar manner to Experiment 2, the blood pressure, heart beat and body temperature of the animal were recorded and monitored. Compounds to be tested were also administered in a similar manner.

[5] = system: thiopental anesthesia; test: Potentiation of thiopental anesthesia (mice); format: in vivo, mouse (ddY strain)
Method: In the test method, male adult mice of ddY strain each weighing 20 to 30 g were used as divided groups each made up of 5 to 7 mice. Test compounds suspended in 0.5% CMC solution were orally administered. After one hour, thiopental (30 mg/kg) was injected into the tail vein, and the time required for the mouse to recover the righting reflex was measured.

[6] = system: decerebrate rigidity (cats); test: Suppression of decerebrate rigidity (cats); format: in vivo, cat
Excerpt: Adult cats each weight 3.0 to 4.5 kg were used. Under ether anesthesia, the trachea was cannulated and the common carotid arteries were ligated at both sides. The cat was decerebrated by suction at the precollicular level. Ether anesthesia was then immediately discontinued. A pair of needle electrodes was inserted into the neck muscle in order to pick up any EMG muscular discharges. The EMG discharge was amplified and recorded on a pen-writing recorder, along with an integration of the EMG discharge. Recording was started at least 2 hours after withdrawal of anesthesia. Blood pressure induced from the femoral artery, as well as body temperature and heart beat, were recorded and monitored throughout the experiment.
After stable EMG discharges were obtained, the test compounds suspended in 0.5% CMC solution were administered into the duodenum through a previously inserted cannula. The effect of the test compound was expressed as the ratio of the integrated EMG discharge after administration relative to the value before administration.

[7] = system: survival time under hypoxic conditions; test: Effect on survival time under hypoxic conditions; format: in vivo, mouse (ddY strain); conditions: 4% oxygen, 96% nitrogen
Excerpt: The test animals employed were male adult mice (5 weeks old and about 30 g body weight) of the ddY strain. The animals were employed in groups, each containing from 7 to 17 animals. Each animal was given intraperitoneally a test compound in suspension (as in the preceding Experiments). Thirty (30) minutes after this administration, 2 or 3 animals were placed in a 1.5 liter gas chamber made of acrylate resin, and a mixture of 4% by volume oxygen and 96% nitrogen was supplied at the rate of 10 liters/minute. The time of death of the animal was measured (determined by the cessation of respiration).

[8] = 30 mg/kg i.p. 30 minutes before ligation
[9] = 100 mg/kg i.p. 30 minutes before ligation
[10] = 100 mg/kg, administered as in Experiment 2
[11] = 100 mg/kg, after administration

## O=c1c(Cl)c(-c2ccccc2)on1CC(O)CN1CCOCC1 (centres unmarked) [2a hydrochloride]
[1]
  Onset time of convulsions: 289.4 min
  Survival time: 375.7 min
[2]; [8]
  Onset time of convulsions: 99.8 ± 27.8 min
  Recovery time of righting reflex: 8.0 ± 1.7 min
  Survival time: 232.1 ± 35.8 min
[2]; [9]
  Onset time of convulsions: 103.5 ± 16.2 min
  Recovery time of righting reflex: 7.6 ± 1.7 min
  Survival time: 233.0 ± 28.7 min

## O=c1c(Cl)c(-c2ccccc2)on1CC(O)CN1CCOCC1 (centres unmarked) [Compound 2a]
[3]; 30 mg/kg p.o.
  Duration of the effect: > 90 min
  Onset of the effect: 5 min
[3]; 50 mg/kg i.p.
  Duration of the effect: > 120 min
  Onset of the effect: 10 min
[3]; 50 mg/kg p.o.
  Duration of the effect: > 90 min
  Onset of the effect: 5 min
[3]; 100 mg/kg p.o.
  Duration of the effect: > 90 min
  Onset of the effect: 5 min
[3]; Rattus norvegicus, ip, 50 mg/kg i.p., read-out: Maximum inhibition
  inhibition in vivo at 50 mg/kg: 50%
[3]; Rattus norvegicus, po, 30 mg/kg p.o., read-out: Maximum inhibition
  inhibition in vivo at 30 mg/kg: 55%
[3]; Rattus norvegicus, po, 50 mg/kg p.o., read-out: Maximum inhibition
  inhibition in vivo at 50 mg/kg: 90%
[3]; Rattus norvegicus, po, 100 mg/kg p.o., read-out: Maximum inhibition
  inhibition in vivo at 100 mg/kg: 100%
[4]; 100 mg/kg
  Duration of the effect on spinal reflexes: about 2 hours
[4]; [10]
  Monosynaptic reflex: little affected
  Polysynaptic reflex: remarkably inhibited
  Spino-bulbo-spinal reflex: remarkably inhibited
[4]; [11]
  Onset of the effect on spinal reflexes: 5 min
  Time of maximum effect on spinal reflexes: 30 min
[4]; in vivo
  Mechanism shown by spinal reflexes: interneuron blockers
[5]; 100 mg/kg p.o., thiopental 30 mg/kg after one hour
  Anesthesia time: 329.1 ± 81.2 s
[5]; compared with afloqualone
  Drowsiness (the adverse effect), implied: induce drowsiness (the adverse effect) less than afloqualone
[5]; in comparison with eperisone hydrochloride
  Prolongation of the duration of thiopental-induced anesthesia, in words: did not significantly prolong the duration of thiopental-induced anesthesia
[6]; 100 mg/kg intraduodenal, 5 minutes after administration
  Inhibition of decerebrate rigidity: About 30%
[6]; 100 mg/kg intraduodenal, 1 hour after administration
  Inhibition of decerebrate rigidity: about 65%
[6]; 100 mg/kg intraduodenal, throughout the observation period
  Duration of inhibitory effects: ≥ 2 h
[6]; compared with eperisone hydrochloride
  Side effects and duration of action compared with eperisone hydrochloride: weaker in side effects and of longer action than eperisone hydrochloride
[2]; 100 mg/kg
  Onset time of convulsions and survival time, in words: prolonged onset time of convulsions, survival time significantly

## Cl.OC(COc1cc(-c2ccccc2)on1)CN1CCOCC1 (centres unmarked) [Example 20, 3-(2-Hydroxy-3-morpholinopropoxy)-5-phenylisoxazole hydrochloride]
[7]; 30 mg/kg i.p.
  Survival time: 124.6 ± 15.4 s
[7]; 100 mg/kg i.p.
  Survival time: 349.5 ± 59.1 s
[2]; 30 mg/kg
  Onset time of convulsions and survival time, in words: prolonged onset time of convulsions, survival time significantly
[2]; [8]
  Onset time of convulsions: 71.9 ± 9.3 min
  Recovery time of righting reflex: 6.5 ± 0.6 min
  Survival rate: 36.4%
  Survival time: 295.9 ± 32.3 min
[2]; 100 mg/kg
  Onset time of convulsions and survival time, in words: prolonged onset time of convulsions, survival time significantly
[2]; [9]
  Onset time of convulsions: 176.7 ± 25.8 min
  Recovery time of righting reflex: 6.9 ± 0.9 min
  Survival rate: 63.6%
  Survival time: 371.9 ± 26.3 min
